Laboratory results reported in ChEMBL document CHEMBL4049442, “Design, Synthesis, and Biological Evaluation of Dimorpholine Substituted Thienopyrimidines as Potential Class I PI3K/mTOR Dual Inhibitors” (J Med Chem, 2017).
The source made the active and inactive calls. The calls are words filed in the database; no cut-off is given here.

What was measured:
SK-OV-3 [1] = assay: cells; settings: Homo sapiens, SK-OV-3, 72 h
[2] = target: Phosphatidylinositol 4,5-bisphosphate 3-kinase catalytic subunit gamma isoform (Homo sapiens, UniProt P48736); assay: Inhibition of recombinant human His-tagged PI3K p110gamma expressed in baculovirus using PIP2 as substrate after 1 hr by kinase-glo luminescence assay
Sequence of Phosphatidylinositol 4,5-bisphosphate 3-kinase catalytic subunit gamma isoform (P48736 whole entry, canonical isoform): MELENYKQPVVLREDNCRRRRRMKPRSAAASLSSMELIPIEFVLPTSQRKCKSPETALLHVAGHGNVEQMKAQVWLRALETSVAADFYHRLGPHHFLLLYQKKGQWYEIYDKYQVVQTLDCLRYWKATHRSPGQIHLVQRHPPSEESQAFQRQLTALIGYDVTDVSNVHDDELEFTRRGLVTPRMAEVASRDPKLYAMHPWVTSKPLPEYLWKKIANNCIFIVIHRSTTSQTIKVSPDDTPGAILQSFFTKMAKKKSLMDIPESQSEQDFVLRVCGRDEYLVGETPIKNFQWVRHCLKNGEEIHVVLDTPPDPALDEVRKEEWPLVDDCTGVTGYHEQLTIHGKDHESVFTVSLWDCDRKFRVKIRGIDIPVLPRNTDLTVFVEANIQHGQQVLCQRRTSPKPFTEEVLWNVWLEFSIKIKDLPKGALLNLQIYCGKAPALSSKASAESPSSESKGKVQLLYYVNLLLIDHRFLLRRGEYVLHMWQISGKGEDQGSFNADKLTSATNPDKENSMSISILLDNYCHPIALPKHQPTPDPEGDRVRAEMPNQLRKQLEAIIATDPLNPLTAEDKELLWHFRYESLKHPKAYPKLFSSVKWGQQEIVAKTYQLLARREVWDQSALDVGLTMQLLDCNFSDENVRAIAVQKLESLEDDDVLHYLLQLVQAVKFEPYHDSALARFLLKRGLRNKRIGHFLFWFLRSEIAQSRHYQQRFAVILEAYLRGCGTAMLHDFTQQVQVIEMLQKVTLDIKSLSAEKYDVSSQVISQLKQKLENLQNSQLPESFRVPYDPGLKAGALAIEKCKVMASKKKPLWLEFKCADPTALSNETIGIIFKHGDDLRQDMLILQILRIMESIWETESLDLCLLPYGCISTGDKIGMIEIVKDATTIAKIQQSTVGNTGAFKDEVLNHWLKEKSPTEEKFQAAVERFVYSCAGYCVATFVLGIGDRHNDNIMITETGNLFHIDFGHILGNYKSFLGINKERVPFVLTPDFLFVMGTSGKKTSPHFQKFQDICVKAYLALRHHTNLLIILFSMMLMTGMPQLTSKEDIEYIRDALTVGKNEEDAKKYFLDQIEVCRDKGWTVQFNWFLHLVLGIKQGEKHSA

Homo sapiens [3] = species on record: Homo sapiens; assay: Inhibition of PI3K in human SKOV3 cells assessed as reduction in S6 phosphorylation after 24 hrs by Western blot analysis; type: cell-based
SK-OV-3 [4] = assay: Antitumor activity against human SKOV3 cells xenografted in BALB/c nude mouse assessed as tumor growth inhibition administered via po for 24 days measured every 3 days during compound dosing; type: functional, organism-based
[5] = Clearance in Sprague-Dawley rat at 2 mg/kg, iv by LC-MS/MS analysis; type: ADME, organism-based; settings: in vivo
[6] = target: Phosphatidylinositol 4,5-bisphosphate 3-kinase catalytic subunit beta isoform (Homo sapiens, UniProt P42338); assay: Inhibition of PI3Kbeta (unknown origin) using PIP2 as substrate after 1 hr by ADP-Glo luminescence assay
Sequence of Phosphatidylinositol 4,5-bisphosphate 3-kinase catalytic subunit beta isoform (P42338 whole entry, canonical isoform): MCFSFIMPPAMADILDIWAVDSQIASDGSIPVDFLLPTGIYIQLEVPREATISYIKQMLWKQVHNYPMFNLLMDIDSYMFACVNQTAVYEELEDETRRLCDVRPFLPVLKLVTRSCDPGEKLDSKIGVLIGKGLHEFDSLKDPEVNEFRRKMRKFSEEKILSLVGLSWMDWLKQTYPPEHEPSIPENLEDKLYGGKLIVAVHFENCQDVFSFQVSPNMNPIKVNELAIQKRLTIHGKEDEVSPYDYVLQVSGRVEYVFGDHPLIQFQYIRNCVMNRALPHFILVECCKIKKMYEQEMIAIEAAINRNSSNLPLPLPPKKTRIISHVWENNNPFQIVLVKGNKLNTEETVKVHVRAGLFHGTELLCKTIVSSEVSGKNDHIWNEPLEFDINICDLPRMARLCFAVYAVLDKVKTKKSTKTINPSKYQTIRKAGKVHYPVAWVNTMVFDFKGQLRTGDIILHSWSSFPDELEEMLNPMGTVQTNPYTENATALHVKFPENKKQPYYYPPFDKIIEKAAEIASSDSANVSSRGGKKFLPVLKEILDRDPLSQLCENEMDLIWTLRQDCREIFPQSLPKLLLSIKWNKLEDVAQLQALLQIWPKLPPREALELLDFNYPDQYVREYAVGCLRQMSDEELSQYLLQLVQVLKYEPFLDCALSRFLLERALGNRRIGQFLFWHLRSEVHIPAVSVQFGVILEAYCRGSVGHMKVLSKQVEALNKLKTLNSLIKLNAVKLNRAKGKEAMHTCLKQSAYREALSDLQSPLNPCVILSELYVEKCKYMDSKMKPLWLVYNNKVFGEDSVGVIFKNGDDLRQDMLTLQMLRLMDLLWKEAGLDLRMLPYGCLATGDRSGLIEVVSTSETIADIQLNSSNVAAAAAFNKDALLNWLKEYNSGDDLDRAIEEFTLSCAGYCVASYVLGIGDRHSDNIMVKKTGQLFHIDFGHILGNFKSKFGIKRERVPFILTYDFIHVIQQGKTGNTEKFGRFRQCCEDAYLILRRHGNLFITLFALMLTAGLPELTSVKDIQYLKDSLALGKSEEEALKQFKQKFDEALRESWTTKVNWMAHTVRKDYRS

[7] = Volume of distribution at steady state in Sprague-Dawley rat at 2 mg/kg, iv by LC-MS/MS analysis; type: ADME, organism-based; settings: in vivo, read-out: Vdss
U-87 MG [8] = assay: cells; settings: Homo sapiens, 72 h
[9] = Cmax in Sprague-Dawley rat at 10 mg/kg, po by LC-MS/MS analysis; type: ADME, organism-based; parameters: dose 10 mg/kg, route oral; settings: in vivo
[10] = Half-life in Sprague-Dawley rat at 2 mg/kg, iv by LC-MS/MS analysis; settings: in vivo
SK-OV-3 [11] = assay: Antitumor activity against human SKOV3 cells xenografted in BALB/c nude mouse assessed as tumor growth inhibition at 60 mg/kg/day, po for 24 days measured every 3 days during compound dosing relative to control; type: functional; settings: SK-OV-3, po, read-out: TGI
[12] = target: PI3-kinase p110-alpha/p85-alpha (Homo sapiens, UniProt P42336); assay: Inhibition of full length recombinant human N-terminal His-tagged PI3K p110alpha/p85alpha expressed in baculovirus using PIP2 as substrate after 1 hr by kinase-glo luminescence assay
Sequence of PI3-kinase p110-alpha/p85-alpha (P27986 whole entry): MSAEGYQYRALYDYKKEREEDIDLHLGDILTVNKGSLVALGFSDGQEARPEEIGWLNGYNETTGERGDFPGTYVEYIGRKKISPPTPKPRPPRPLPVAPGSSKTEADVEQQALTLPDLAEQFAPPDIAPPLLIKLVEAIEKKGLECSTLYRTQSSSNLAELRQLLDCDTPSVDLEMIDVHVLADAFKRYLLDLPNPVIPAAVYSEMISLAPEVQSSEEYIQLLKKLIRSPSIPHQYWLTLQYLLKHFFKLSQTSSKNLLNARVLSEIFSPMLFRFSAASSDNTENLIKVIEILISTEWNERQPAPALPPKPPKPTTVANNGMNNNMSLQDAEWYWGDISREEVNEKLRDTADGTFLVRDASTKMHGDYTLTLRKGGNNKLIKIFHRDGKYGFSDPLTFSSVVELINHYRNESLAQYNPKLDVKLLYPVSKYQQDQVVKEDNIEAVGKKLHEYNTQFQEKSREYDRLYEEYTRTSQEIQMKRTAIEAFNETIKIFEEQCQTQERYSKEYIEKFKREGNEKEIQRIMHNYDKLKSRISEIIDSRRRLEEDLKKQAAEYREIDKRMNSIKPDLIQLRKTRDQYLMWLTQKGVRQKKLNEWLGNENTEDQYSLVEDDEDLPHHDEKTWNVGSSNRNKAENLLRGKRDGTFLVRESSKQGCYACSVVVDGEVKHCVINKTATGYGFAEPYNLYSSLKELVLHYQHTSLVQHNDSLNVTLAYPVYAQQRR
Sequence of PI3-kinase p110-alpha/p85-alpha (P42336 whole entry): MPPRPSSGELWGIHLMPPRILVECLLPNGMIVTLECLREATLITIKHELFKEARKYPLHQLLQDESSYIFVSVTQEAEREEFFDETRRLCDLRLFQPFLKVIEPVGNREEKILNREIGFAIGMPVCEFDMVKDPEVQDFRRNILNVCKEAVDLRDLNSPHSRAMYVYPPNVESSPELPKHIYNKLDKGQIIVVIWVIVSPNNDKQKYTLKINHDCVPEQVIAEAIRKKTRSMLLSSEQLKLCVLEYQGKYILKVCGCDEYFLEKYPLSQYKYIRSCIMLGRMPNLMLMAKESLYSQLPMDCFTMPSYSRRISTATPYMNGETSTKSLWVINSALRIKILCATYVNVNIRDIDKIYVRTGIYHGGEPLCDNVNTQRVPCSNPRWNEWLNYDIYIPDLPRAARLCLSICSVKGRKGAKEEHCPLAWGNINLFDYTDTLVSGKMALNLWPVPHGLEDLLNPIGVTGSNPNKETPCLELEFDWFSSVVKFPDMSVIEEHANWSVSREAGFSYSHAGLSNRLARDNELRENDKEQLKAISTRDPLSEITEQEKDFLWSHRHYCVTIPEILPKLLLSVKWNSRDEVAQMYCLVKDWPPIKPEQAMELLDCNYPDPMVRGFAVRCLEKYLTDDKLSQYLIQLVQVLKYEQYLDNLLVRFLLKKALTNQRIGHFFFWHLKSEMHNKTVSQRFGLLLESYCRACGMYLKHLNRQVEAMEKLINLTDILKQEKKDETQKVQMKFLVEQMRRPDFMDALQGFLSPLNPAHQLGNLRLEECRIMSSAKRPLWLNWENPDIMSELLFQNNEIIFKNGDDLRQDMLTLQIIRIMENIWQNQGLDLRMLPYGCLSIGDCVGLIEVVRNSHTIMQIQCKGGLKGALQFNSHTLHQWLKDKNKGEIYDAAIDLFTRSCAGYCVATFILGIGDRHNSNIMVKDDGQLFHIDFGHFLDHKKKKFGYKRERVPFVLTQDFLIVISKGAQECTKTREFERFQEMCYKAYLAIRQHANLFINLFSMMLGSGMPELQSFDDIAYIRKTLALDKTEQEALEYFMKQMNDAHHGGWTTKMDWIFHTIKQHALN

U-87 MG [13] = assay: Antitumor activity against human U87MG cells xenografted in BALB/c nude mouse assessed as tumor growth inhibition at 20 mg/kg/day, po for 18 days measured every 3 days during compound dosing relative to control; type: functional, U-87MG ATCC; settings: read-out: TGI
SK-OV-3 [14] = assay: Antitumor activity against human SKOV3 cells xenografted in BALB/c nude mouse assessed as tumor growth inhibition at 15 mg/kg/day, po for 24 days measured every 3 days during compound dosing relative to control; type: functional; settings: SK-OV-3, po, read-out: TGI
Mus musculus [15] = assay: In vivo inhibition of PI3K in BALB/c nude mouse xenografted with human SKOV3 cells assessed as reduction in Akt phosphorylation at S473 in tumors administered po for 24 days by immunohistochemical analysis; type: functional, organism-based
Homo sapiens [16] = species on record: Homo sapiens; assay: Inhibition of PI3K in human U87MG cells assessed as reduction in Akt phosphorylation at S473 after 24 hrs by Western blot analysis; type: cell-based
U-87 MG [17] = assay: Antitumor activity against human U87MG cells xenografted in BALB/c nude mouse assessed as tumor growth inhibition at 40 mg/kg/day, po for 18 days measured every 3 days during compound dosing relative to control; type: functional, U-87MG ATCC; settings: read-out: TGI
SK-OV-3 [18] = assay: Antitumor activity against human SKOV3 cells xenografted in BALB/c nude mouse assessed as TUNEL positive cells at 15 to 60 mg/kg/day, po for 24 days; type: functional, organism-based
Mus musculus [19] = assay: In vivo inhibition of PI3K in BALB/c nude mouse xenografted with human SKOV3 cells assessed as reduction in S6RP phosphorylation at Ser235/236 administered po for 24 days in tumors by immunohistochemical analysis; type: functional, organism-based
[20] = target: PI3-kinase p110-delta/p85-alpha (Homo sapiens, UniProt O00329); assay: Inhibition of recombinant full length human N-terminal His6-tagged PI3K p110delta/p85alpha expressed in baculovirus infected Sf21 cells using PIP2 as substrate after 2 hrs by kinase-glo luminescence assay
Sequence of PI3-kinase p110-delta/p85-alpha (P27986 whole entry): as the sequence (P27986 whole entry) above
Sequence of PI3-kinase p110-delta/p85-alpha (O00329 whole entry): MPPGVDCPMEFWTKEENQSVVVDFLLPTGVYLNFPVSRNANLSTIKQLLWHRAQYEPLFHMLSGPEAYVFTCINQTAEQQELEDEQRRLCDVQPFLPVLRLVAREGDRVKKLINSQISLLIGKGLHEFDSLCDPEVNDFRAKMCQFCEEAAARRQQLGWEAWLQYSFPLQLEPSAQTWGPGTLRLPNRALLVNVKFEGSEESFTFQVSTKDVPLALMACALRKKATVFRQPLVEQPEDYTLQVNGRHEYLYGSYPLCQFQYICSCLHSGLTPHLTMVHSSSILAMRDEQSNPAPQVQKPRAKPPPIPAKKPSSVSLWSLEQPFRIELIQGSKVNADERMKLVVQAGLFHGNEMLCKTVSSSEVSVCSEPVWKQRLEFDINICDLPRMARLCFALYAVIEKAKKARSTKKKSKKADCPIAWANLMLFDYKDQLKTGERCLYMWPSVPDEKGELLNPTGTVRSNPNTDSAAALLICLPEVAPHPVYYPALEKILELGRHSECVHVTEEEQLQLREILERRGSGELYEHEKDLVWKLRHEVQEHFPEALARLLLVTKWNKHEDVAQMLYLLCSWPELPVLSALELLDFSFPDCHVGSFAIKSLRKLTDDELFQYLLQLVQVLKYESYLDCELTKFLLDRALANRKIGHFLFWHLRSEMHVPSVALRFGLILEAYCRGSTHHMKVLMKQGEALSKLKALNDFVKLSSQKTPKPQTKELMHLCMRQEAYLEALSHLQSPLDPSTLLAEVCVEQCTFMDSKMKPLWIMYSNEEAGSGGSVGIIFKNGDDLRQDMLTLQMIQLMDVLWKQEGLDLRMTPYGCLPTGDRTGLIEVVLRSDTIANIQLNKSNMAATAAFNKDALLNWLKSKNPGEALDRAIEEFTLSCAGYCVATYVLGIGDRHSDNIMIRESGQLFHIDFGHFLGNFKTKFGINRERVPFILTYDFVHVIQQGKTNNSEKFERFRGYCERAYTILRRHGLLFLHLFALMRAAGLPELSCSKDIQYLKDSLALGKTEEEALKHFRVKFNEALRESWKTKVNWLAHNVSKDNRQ

U-87 MG [21] = assay: Antitumor activity against human U87MG cells xenografted in BALB/c nude mouse assessed as tumor growth inhibition administered po for 18 days measured every 3 days during compound dosing; type: functional, organism-based; settings: U-87MG ATCC
LNCaP = assay: cells; settings: Homo sapiens, 72 h
[22] = Oral bioavailability in Sprague-Dawley rat at 10 mg/kg by LC-MS/MS analysis; type: ADME, organism-based; settings: in vivo
Homo sapiens [23] = species on record: Homo sapiens; assay: Inhibition of PI3K in human U87MG cells assessed as reduction in S6 phosphorylation after 24 hrs by Western blot analysis; type: cell-based
[24] = target: Serine/threonine-protein kinase mTOR (Homo sapiens, UniProt P42345); assay: Inhibition of recombinant human N-terminal FLAG-tagged mTOR (1362 to end residues) expressed in baculovirus infected Sf21 insect cells assessed as reduction in ULight-4E-BP1 phosphorylation after 30 mins by lance ultra assay
SK-OV-3 [25] = assay: Antitumor activity against human SKOV3 cells xenografted in BALB/c nude mouse assessed as tumor growth inhibition at 30 mg/kg/day, po for 24 days measured every 3 days during compound dosing relative to control; type: functional; settings: SK-OV-3, po, read-out: TGI
Mus musculus [26] = assay: Toxicity in BALB/c nude mouse xenografted with human SKOV3 cells assessed as body weight loss at 15 to 60 mg/kg/day, po for 24 days measured every 3 days during compound dosing; type: organism-based; settings: in vivo
Homo sapiens [27] = species on record: Homo sapiens; assay: Inhibition of PI3K in human U87MG cells assessed as reduction in Akt phosphorylation at T308 after 24 hrs by Western blot analysis; type: cell-based
SK-OV-3 [28] = assay: Antitumor activity against human SKOV3 cells xenografted in BALB/c nude mouse assessed as decrease in cell proliferation administered po for 24 days by Ki67 staining based assay; type: functional, organism-based
PC-3 = assay: cells; settings: Homo sapiens, PC-3, 72 h
Homo sapiens [29] = species on record: Homo sapiens; assay: Inhibition of PI3K in human SKOV3 cells assessed as reduction in Akt phosphorylation at T308 after 24 hrs by Western blot analysis; type: cell-based
Homo sapiens [30] = species on record: Homo sapiens; assay: Inhibition of PI3K in human SKOV3 cells assessed as reduction in Akt phosphorylation at S473 after 24 hrs by Western blot analysis; type: cell-based
[31] = AUC in Sprague-Dawley rat at 10 mg/kg, po by LC-MS/MS analysis; type: ADME, organism-based; settings: in vivo
Mus musculus [32] = assay: Toxicity in BALB/c nude mouse xenografted with human U87MG cells assessed as body weight loss at 20 to 40 mg/kg/day, po for 18 days measured every 3 days during compound dosing; type: organism-based; settings: in vivo

IC50 (SK-OV-3 [1]): 0.504 µM
IC50 [2]: 0.075 µM
clearance [5]: 29 mL/min/kg
IC50 [6]: 0.175 µM
Vd [7]: 4.4 L/kg
IC50 (U-87 MG [8]): 0.43 µM
Cmax [9]: 1400 nM
half-life [10]: 1.5 h
IC50 [12]: 0.015 µM
IC50 [20]: 0.01 µM
IC50 (LNCaP): 0.21 µM
bioavailability [22]: 41%
IC50 [24]: 0.016 µM
IC50 (PC-3): 0.446 µM
AUC [31]: 5.2 µM·h
Compound: C[C@@H]1CN(c2nc(N3CCOCC3)c3sc(-c4ccn[nH]4)cc3n2)C[C@H](C)O1
inhibition (Homo sapiens [3]): Dose-dependent effect
TGI (SK-OV-3 [4]): Dose-dependent effect
inhibition in vivo at 60 mg/kg/day (SK-OV-3 [11]): 89.6%
inhibition in vivo at 20 mg/kg/day (U-87 MG [13]): 69.2%
inhibition in vivo at 15 mg/kg/day (SK-OV-3 [14]): 48.5%
inhibition (Mus musculus [15]): Dose-dependent effect
inhibition (Homo sapiens [16]): Dose-dependent effect
inhibition in vivo at 40 mg/kg/day (U-87 MG [17]): 81.2%
Activity (SK-OV-3 [18]): Active
inhibition (Mus musculus [19]): Dose-dependent effect
TGI (U-87 MG [21]): Dose-dependent effect
inhibition (Homo sapiens [23]): Dose-dependent effect
inhibition in vivo at 30 mg/kg/day (SK-OV-3 [25]): 75.9%
Activity (Mus musculus [26]): Non-Toxic
inhibition (Homo sapiens [27]): Dose-dependent effect
Activity (SK-OV-3 [28]): Dose-dependent effect
inhibition (Homo sapiens [29]): Dose-dependent effect
inhibition (Homo sapiens [30]): Dose-dependent effect
Activity (Mus musculus [32]): Non-Toxic
